In patent publication US20240083879A1, “OXALAMIDE COMPOUNDS AND COMPOSITIONS FOR TREATING CONDITIONS ASSOCIATED WITH STING ACTIVITY” (IFM Due, Inc., priority 2021, published 2024):

What follows are compounds tested against hSTING (Homo sapiens (Human), UniProt Q86WV6, G230A/R293Q/R71H) (assay: STING reporter assay (luciferase) in THP1-Dual KO-IFNAR2 cells stimulated with 2'3'cGAMP). Settings: 15 μM 2'3'cGAMP, 24 h.
Type: cell-based
Method: STING pathway activation by the compounds described herein was measured using THP1-Dual™ cells (KO-IFNAR2).
THP1-Dual™ KO-IFNAR2 Cells (obtained from invivogen) were maintained in RPMI, 10% FCS, 5 ml P/S, 2 mM L-glut, 10 mM Hepes, and 1 mM sodium pyruvate. Compounds were spotted in empty 384 well tissue culture plates (Greiner 781182) by Echo for a final concentration of 0.0017-100 μM. Cells were plated into the TC plates at 40 μL per well, 2×10E6 cells/mL. For activation with STING ligand, 2′3′cGAMP (MW 718.38, obtained from Invivogen), was prepared in Optimem media.
The following solutions were prepared for each 1×384 plate: • Solution A: 2 mL Optimem with one of the following stimuli: • 60 μL of 10 mM 2′3′cGAMP→150 μM stock • Solution B: 2 mL Optimem with 60 μL Lipofectamine 2000→Incubate 5 min at RT
2 mL of solution A and 2 ml Solution B was mixed and incubated for 20 min at room temperature (RT). 20 μL of transfection solution (A+B) was added on top of the plated cells, with a final 2′3′cGAMP concentration of 15 μM. The plates were then centrifuged immediately at 340 g for 1 minute, after which they were incubated at 37° C., 5% CO2, >98% humidity for 24 h. Luciferase reporter activity was then measured. EC50 values were calculated by using standard methods known in the art.
Luciferase reporter assay: 10 μL of supernatant from the assay was transferred to white 384-plate with flat bottom and squared wells. One pouch of QUANTI-Luc™ Plus was dissolved in 25 mL of water. 100 μL of QLC Stabilizer per 25 mL of QUANTI-Luc™ Plus solution was added. 50 μL of QUANTI-Luc™ Plus/QLC solution per well was then added. Luminescence was measured on a Platereader (e.g., Spectramax I3X (Molecular Devices GF3637001)).
Luciferase reporter activity was then measured. EC50 values were calculated by using standard methods known in the art.

Sequence of hSTING (Q86WV6 whole entry R71H/G230A/R293Q): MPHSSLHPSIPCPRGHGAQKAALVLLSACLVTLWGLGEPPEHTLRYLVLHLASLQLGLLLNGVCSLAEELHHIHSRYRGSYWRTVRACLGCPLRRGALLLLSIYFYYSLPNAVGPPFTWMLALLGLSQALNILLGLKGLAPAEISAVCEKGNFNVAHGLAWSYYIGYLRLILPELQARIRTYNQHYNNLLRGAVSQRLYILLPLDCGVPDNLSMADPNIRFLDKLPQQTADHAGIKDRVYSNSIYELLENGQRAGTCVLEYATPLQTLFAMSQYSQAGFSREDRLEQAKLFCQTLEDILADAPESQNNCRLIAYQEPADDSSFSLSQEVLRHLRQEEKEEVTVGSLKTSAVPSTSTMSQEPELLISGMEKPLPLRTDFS

`CCc1ccc(-n2cc(-c3ccc4[nH]cc(NC(=O)C(=O)NC5CCCC5)c4c3)cn2)cc1` [Compound 104, N′-cyclopentyl-N-{5-[1-(4-ethylphenyl)-1H-pyrazol-4-yl]-1H-indol-3-yl}ethanediamide] and `CCc1ccc(-n2cc(-c3ccc4[nH]cc(NC(=O)C(=O)NC5CCC5)c4c3)cn2)cc1` [Compound 113, N-cyclobutyl-N′-{5-[1-(4-ethylphenyl)-1H-pyrazol-4-yl]-1H-indol-3-yl}ethanediamide] fall in the same range of EC50: 0.2 to 1 µM for the first, 0.2 to 1 µM for the second.

`CCc1ccc(-n2cc(-c3ccc4[nH]cc(NC(=O)C(=O)NC5CCOC5)c4c3)cn2)cc1` (stereo not drawn) [Compound 108, N-{5-[1-(4-ethylphenyl)-1H-pyrazol-4-yl]-1H-indol-3-yl}-N′-(oxolan-3-yl)ethanediamide] and `CCc1ccc(-n2cc(-c3ccc4[nH]cc(NC(=O)C(=O)N[C@H]5C[C@H](OC)C5)c4c3)cn2)cc1` [Compound 109, N′-{5-[1-(4-ethylphenyl)-1H-pyrazol-4-yl]-1H-indol-3-yl}-N-[(1r,3r)-3-methoxycyclobutyl]ethanediamide] fall in the same range of EC50: 0.2 to 1 µM for the first, 0.2 to 1 µM for the second.

`CCc1ccc(-n2cc(-c3ccc4[nH]cc(NC(=O)C(=O)N5CCN(C(C)=O)CC5)c4c3)cn2)cc1` [Compound 111, 2-(4-acetylpiperazin-1-yl)-N-{5-[1-(4-ethylphenyl)-1H-pyrazol-4-yl]-1H-indol-3-yl}-2-oxoacetamide] and `CCc1ccc(-n2cc(-c3ccc4[nH]cc(NC(=O)C(=O)N5CCC5)c4c3)cn2)cc1` [Compound 107, 2-(azetidin-1-yl)-N-{5-[1-(4-ethylphenyl)-1H-pyrazol-4-yl]-1H-indol-3-yl}-2-oxoacetamide] fall in the same range of EC50: 0.2 to 1 µM for the first, 0.2 to 1 µM for the second.

`CCc1ccc(-n2cc(-c3ccc4[nH]cc(NC(=O)C(=O)N(C)C)c4c3)cn2)cc1` [Compound 112, N′-{5-[1-(4-ethylphenyl)-1H-pyrazol-4-yl]-1H-indol-3-yl}-N,N-dimethylethanediamide] and `CCc1ccc(-n2cc(-c3ccc4[nH]cc(NC(=O)C(N)=O)c4c3)cn2)cc1` [Compound 124, N^1-(5-(1-(4-ethylphenyl)-1H-pyrazol-4-yl)-1H-indol-3-yl)oxalamide] fall in the same range of EC50: 0.2 to 1 µM for the first, 0.2 to 1 µM for the second.

`CNC(=O)C(=O)Nc1c[nH]c2ccc(-c3cnn(-c4ccccc4Cl)c3)cc12` [Compound 121, N^1-(5-(1-(2-chlorophenyl)-1H-pyrazol-4-yl)-1H-indol-3-yl)-N^2-methyloxalamide] and `CNC(=O)C(=O)Nc1c[nH]c2ccc(-c3cnn(-c4cccc(Cl)c4)c3)cc12` [Compound 119, N^1-(5-(1-(3-chlorophenyl)-1H-pyrazol-4-yl)-1H-indol-3-yl)-N^2-methyloxalamide] fall in the same range of EC50: 1 to 5 µM for the first, 1 to 5 µM for the second.

`CCc1ccc(-n2cc(-c3ccc4[nH]cc(NC(=O)C(=O)NCC(F)F)c4c3)cn2)cc1` [Compound 116, N-(2,2-difluoroethyl)-N′-{5-[1-(4-ethylphenyl)-1H-pyrazol-4-yl]-1H-indol-3-yl}ethanediamide] and `CCc1ccc(-n2cc(-c3ccc4[nH]cc(NC(=O)C(=O)NCC(F)(F)F)c4c3)cn2)cc1` [Compound 114, N1-(5-(1-(4-ethylphenyl)-1H-pyrazol-4-yl)-1H-indol-3-yl)-N^2-(2,2,2-trifluoroethyl)oxalamide] fall in the same range of EC50: 0.2 to 1 µM for the first, 0.2 to 1 µM for the second.

`CCc1ccc(-n2cc(-c3ccc4[nH]cc(NC(=O)C(=O)NCCC(F)(F)F)c4c3)cn2)cc1` [Compound 103, N′-{5-[1-(4-ethylphenyl)-1H-pyrazol-4-yl]-1H-indol-3-yl}-N-(3,3,3-trifluoropropyl)ethanediamide] and `CCc1ccc(-n2cc(-c3ccc4[nH]cc(NC(=O)C(=O)NCCOC)c4c3)cn2)cc1` [Compound 120, N′-{5-[1-(4-ethylphenyl)-1H-pyrazol-4-yl]-1H-indol-3-yl}-N-(2-methoxyethyl)ethanediamide] fall in the same range of EC50: 0.2 to 1 µM for the first, 0.2 to 1 µM for the second.

`O=C(Nc1c[nH]c2ccc(-c3cnn(-c4ccc(C(F)(F)F)cc4)c3)cc12)C(=O)NC1COC1` [Compound 102, N^1-(oxetan-3-yl)-N^2-(5-(1-(4-(trifluoromethyl)phenyl)-1H-pyrazol-4-yl)-1H-indol-3-yl)oxalamide] and `CO[C@H]1C[C@H](NC(=O)C(=O)Nc2c[nH]c3ccc(-c4cnn(-c5ccc(C(F)(F)F)cc5)c4)cc23)C1` [Compound 101, N-[trans-3-methoxycyclobutyl]-N′-(5-[1-[4-(trifluoromethyl)phenyl]pyrazol-4-yl]-1H-indol-3-yl)ethanediamide] fall in the same range of EC50: 0.2 to 1 µM for the first, 0.2 to 1 µM for the second.

`CCc1ccc(-n2cc(-c3ccc4[nH]cc(NC(=O)C(=O)NCC5CCCC5)c4c3)cn2)cc1` [Compound 106, N′-(cyclopentylmethyl)-N-{5-[1-(4-ethylphenyl)-1H-pyrazol-4-yl]-1H-indol-3-yl}ethanediamide] and `CCc1ccc(-n2cc(-c3ccc4[nH]cc(NC(=O)C(=O)NCC5CC5)c4c3)cn2)cc1` [Compound 105, N-(cyclopropylmethyl)-N′-{5-[1-(4-ethylphenyl)-1H-pyrazol-4-yl]-1H-indol-3-yl}ethanediamide] fall in the same range of EC50: 0.2 to 1 µM for the first, 0.2 to 1 µM for the second.

`CCc1ccc(-n2cc(-c3ccc4[nH]cc(NC(=O)C(=O)NC)c4c3)cn2)cc1` [Compound 123, N′-[5-[1-(4-ethylphenyl)pyrazol-4-yl]-1H-indol-3-yl]-N-methylethanediamide] and `CCc1ccc(-n2cc(-c3ccc4[nH]cc(NC(=O)C(=O)NC(C)C)c4c3)cn2)cc1` [Compound 110, N′-{5-[1-(4-ethylphenyl)-1H-pyrazol-4-yl]-1H-indol-3-yl}-N-(propan-2-yl)ethanediamide] fall in the same range of EC50: 0.2 to 1 µM for the first, 0.2 to 1 µM for the second.

`CCc1ccc(-n2cc(-c3ccc4[nH]cc(NC(=O)C(=O)N5CCCC5)c4c3)cn2)cc1` [Compound 115, N-{5-[1-(4-ethylphenyl)-1H-pyrazol-4-yl]-1H-indol-3-yl}-2-oxo-2-(pyrrolidin-1-yl)acetamide] and `CNC(=O)C(=O)Nc1c[nH]c2ccc(-c3cnn(-c4ccc(C(F)(F)F)cc4)c3)cc12` [Compound 118, N^1-methyl-N^2-(5-(1-(4-(trifluoromethyl)phenyl)-1H-pyrazol-4-yl)-1H-indol-3-yl)oxalamide] fall in the same range of EC50: 0.2 to 1 µM for the first, 0.2 to 1 µM for the second.

`CNC(=O)C(=O)Nc1c[nH]c2ccc(-c3cccc(C4CC4)c3)cc12` [Compound 117, N^1-(5-(3-cyclopropylphenyl)-1H-indol-3-yl)-N^2-methyloxalamide] and `CNC(=O)C(=O)Nc1c[nH]c2ccc(-c3cnn(C4CCCC4)c3)cc12` [Compound 122, N^1-(5-(1-cyclopentyl-1H-pyrazol-4-yl)-1H-indol-3-yl)-N^2-methyloxalamide] fall in the same range of EC50: 5 to 100 µM for the first, 5 to 100 µM for the second.
